Drawing on the OPERA property sets (Mansouri et al. 2018), this text covers logP for 37 compounds.

In the case of `COc1ccc(C(=O)NN=Cc2c(CO)cnc(C)c2O)cc1`, the logP amounted to 2.47.
As for `O=C(NN=Cc1ccccc1O)c1cccc(F)c1`, the figure is 3.41.
`O=C(NN=Cc1ccccc1O)c1cccc(Br)c1` displayed a logP of 3.91.
As for `O=C(NN=Cc1ccccc1O)c1ccccc1`, the figure is 3.01.
The result for `CC(=O)NN=Cc1c(O)ccc2ccccc12` reads 2.91.
As to `O=C(NN=Cc1ccccc1O)c1ccco1`, the log partition coefficient (logP) came out at 2.67.
`COc1ccc(C(=O)NN=Cc2c(O)ccc3ccccc23)cc1`: the logP stood at 4.06.
With `Nc1ccc(C(=O)NN=Cc2c(O)ccc3ccccc23)cc1`, the logP came to 3.04.
`Cc1ccc(C(=O)NN=Cc2ccccc2O)cc1` showed a logP of 3.39.
As for `Nc1ccc(C(=O)NN=Cc2ccccc2O)cc1`, the figure is 2.16; as for `CC(=O)NN=Cc1c(CO)cnc(C)c1O`, 0.65; as for `Cc1ccc(C(=O)NN=Cc2c(CO)cnc(C)c2O)cc1`, 2.54.
Consider `O=C(NN=Cc1c(O)ccc2ccccc12)c1ccc(O)cc1`, for which the logP turned out to be 3.95.
As for `O=C(NN=Cc1ccccc1O)c1cccs1`, the figure is 3.03.
As for `Cc1ncc(CO)c(C=NNC(=O)c2cccc(Br)c2)c1O`, the figure is 3.07; as for `O=C(NN=Cc1c(O)ccc2ccccc12)c1ccc([N+](=O)[O-])cc1`, 3.58.
The result for `Cc1ncc(CO)c(C=NNc2ccccn2)c1O` reads 2.46; that for `Cc1ncc(CO)c(C=NNC(=O)c2ccc(O)cc2)c1O`, 1.89; that for `O=C(NN=Cc1ccccc1O)c1ccc(O)cc1`, 2.56.
In turn, `O=C(NN=Cc1c(O)ccc2ccccc12)c1ccco1` registered a logP of 3.41.
The compound `Cc1ncc(CO)c(C=NNC(=O)c2ccncc2)c1O` had a logP of 1.14.
Consider `Cc1ncc(CO)c(C=NNC(=O)c2cccc(Cl)c2)c1O`, for which the logP is 2.96.
As for `Cc1ncc(CO)c(C=NNC(=O)c2ccc(N)cc2)c1O`, the figure is 1.19; as for `Cc1ncc(CO)c(C=NNC(=O)c2cccs2)c1O`, 2.11.
As for `Oc1ccccc1C=NNc1ccccn1`, the figure is 3.24; as for `O=C(NN=Cc1c(O)ccc2ccccc12)c1cccc(F)c1`, 4.06; as for `Cc1ncc(CO)c(C=NNC(=O)c2ccco2)c1O`, 1.39.
As for `O=C(NN=Cc1ccccc1O)c1ccncc1`, the figure is 2.16; as for `COc1ccc(C(=O)NN=Cc2ccccc2O)cc1`, 3.34.
`Cc1ncc(CO)c(C=NNC(=O)c2ccc([N+](=O)[O-])cc2)c1O` had a logP of 1.55.
As for `Cc1ncc(CO)c(C=NNC(=O)c2cccc(F)c2)c1O`, the figure is 2.42; as for `O=C(NN=Cc1ccccc1O)c1ccc([N+](=O)[O-])cc1`, 3.03.
As for `CC(C)(C)c1ccc(C(=O)NN=Cc2ccccc2O)cc1`, the figure is 4.73.
`CC(=O)NN=Cc1ccccc1O` had a logP of 1.71.
As for `Cc1ncc(CO)c(C=NNC(=O)c2ccc(C(C)(C)C)cc2)c1O`, the figure is 3.73.
`O=C(NN=Cc1ccccc1O)c1cccc(Cl)c1`: the logP amounted to 3.83.
The result for `Cc1ncc(CO)c(C=NNC(=O)c2ccccc2)c1O` reads 2.23.
